From patent US12528777B2, “Quinazolinones derivatives for treatment of non-alcoholic fatty liver disease, preparation and use thereof” (Council of Scientific and Industrial Research, priority 2020, dated 2026)
Entries after “also recorded” stand apart in the source; their conditions may differ.

Experiments:
ATGL = experiment: Western blot of ATGL level in HepG2 cells; assay type: cell-based; design: key to Increase in ATGL level: + = slight or in insignificant; ++ = Moderate; +++ and ++++ = active; +++ and ++++ = active; +++++ = very active; conditions: western blot; for Increase in ATGL level: HepG2 cells, score; for ATGL level in HepG2 cells: 24 hours, 10 μM screening or 50 nM-5 μM dose dependent
Description: (§1) To select the compounds capable of inhibiting the ubiquitination of ATGL by COP1 by targeting the VP motif, confocal microscopy was performed with the provided molecules. If the compound was effective in inhibiting the interaction, there would be a reduction in the number of fat droplets in the cells after treatment. […] With this rationale in mind, HepG2 cells were induced to accumulate lipid droplets after treatment with 250 µM of oleate and 10 μM of the specific compounds were added. The potential of the compounds to bring about a reduction in the number of fat droplets was then checked by comparison with oleate induced cells by counting number of droplets of approximately 20 cells from each treatment and calculating the average number of lipid droplets of each cell. The selected compounds were then subjected to dose dependent treatments and the ones which could maintain its potency to reduce fat droplets at lower doses were then selected for western blot analysis. The compound which could reduce the number of fat droplets in the cells are expected to raise the levels of ATGL since they are likely to deter COP1 from ubiquitinating ATGL. This increase will be visible only in the protein level and gene expression is likely to remain unchanged since ubiquitination is a […] modification. Thus, western blot was performed to check ATGL levels in the cells with the selected molecules.
HepG2 cells were treated with the compounds 9, 10, 11, 17, 18, 23, 24, 115, 123, 127, 139,107, 171, 179, 73, 187, 211, 215, 219, 223, 232, 238, 241, 244, 258, 299, 308, and 333a, (10 μM for initial screening and 50 nM, 100 nM, 200 nM, 500 nM, 1 μM and 5 μM for dose dependent assays) for 24 hours. After removing media from the cells, the wells were washed with 1×PBS twice to remove any remnant media. Cells were then lysed in lysis buffer containing 50 mM Tris-HCl (pH 7.4), 100 mM NaCl, 1 mM EDTA, 1 mM EGTA, 1% Triton X-100 and protease inhibitor cocktail (Millipore, Billierica, MA, USA). Following centrifugation at 20,000 g for 20 minutes, the protein solution was extracted from the cells. Protein was estimated using Bradford assay. Bradford's reagent (BioRad) was diluted in 1:4 ratio in double distilled water. 2 μl of protein sample was added to 100 μl of the reagent and absorbance was measured at 595 nm. […] of protein was diluted in lysis buffer. 1× loading buffer diluted from 5× stock containing 250 mM Tris-HCl (pH 6.8), 10% SDS, 50% glycerol, 0.1% bromophenol Blue and 10% β-mercaptoethanol was added. The protein samples were then heated at 95° C. for 10 minutes, cooled and centrifuged at 12,000 g for 2 minutes prior to loading.
For western blotting, the proteins were resolved in 10% SDS PAGE (discontinuous buffer system). 1× running buffer containing SDS, Tris Base and Glycine was used to run the gel at 80V for approximately 2 hours. Transfer was done using PVDF membrane (Millipore) having pore size of 0.45 μm. 1× transfer buffer containing Tris-Base, Glycine and 20% methanol was used for wet transfer. Transfer was done at 90V for 3 hours. Following transfer, the PVDF membrane containing the proteins were washed in 1×PBST comprising of 1×PBS and 1% Tween 20 (Sigma Aldrich). The membrane was then incubated for 1 hour at room temperature in 5% skim milk powder to block the non-specific sites. Following multiple washes with 1×PBST to wash away any remaining blocking buffer, the required primary antibody (COP1 [Bethyl Laboraties], ATGL [Cell Signalling Technology] or Actin[Cell Signalling Technology]) prepared with 1×PBST, 1% Bovine Serum Albumin and 0.04% Sodium Azide was added to the membrane and incubated overnight at 4° C. The next day, the membrane was again washed multiple times with 1×PBST to remove any unbound primary antibody. The membrane was then incubated with goat anti-rabbit secondary antibody (Genei) for 1 hour at room temperature and washed again for multiple times with 1×PBST. […]

HepG2 cells = experiment: Confocal microscopy: lipid droplets in oleate induced HepG2 cells; assay type: cell-based; design: key to Reduction in Lipid Droplets: + = slight or in insignificant; ++ = Moderate; +++ and ++++ = active; +++ and ++++ = active; +++++ = very active; conditions: for Reduction in Lipid Droplets: oleate induced HepG2 cells, score; for Number of lipid droplets: HepG2 cells, 250 μM oleate induction
Description: as §1
HepG2 cells were plated in confocal dishes (SPL, Genetix Biotech Asia Pvt. Ltd.). The cells were allowed to adhere and divide for 16 hours. 10 μM for initial screening and 10 nM, 20 nM, 50 nM, 100 nM, 200 nM, 500 nM, 1 μM and 5 μM for dose dependent assays of the compounds 9 and 107 were dissolved in DMSO and added to the cells. 250 μM of oleate was used for induction. BSA (Sigma Aldrich) was used as a negative control. Post 24 hours of treatment, media was decanted from the cells and washed with 1×PBS solution to remove any remnant. 200 μl of staining solution containing 200 ng/ml BODIPY (Invitrogen) and 25 µg/ml HOECKST342 (Invitrogen) were added to the cells and incubated at 37° C. for 30 minutes under dark conditions. Cells were washed 3 times with 1×PBS to remove excess stain. FLUOVIEW FV10i (Olympus) was used to visualise the cells.

| Structure (SMILES) | Increase in ATGL level (ATGL) | ATGL level in HepG2 cells (ATGL) | Reduction in Lipid Droplets (HepG2 cells) | Number of lipid droplets (HepG2 cells) |
| --- | --- | --- | --- | --- |
| COCCn1cnc2ccc(NC(=O)Nc3cccc(C(C)O)c3)cc2c1=O (stereo not drawn) [Compound 11, 1-(3-(1-hydroxyethyl)phenyl)-3-(3-(2-methoxyethyl)-4-oxo-3,4-dihydroquinazolin-6-yl)urea] | + | increased ATGL level | + |  |
| COCCn1cnc2ccc(NC(=O)Nc3cccc(C(=O)N(C)C)c3)cc2c1=O [Compound 17, 3-(3-(3-(2-methoxyethyl)-4-oxo-3,4-dihydroquinazolin-6-yl)ureido)-N,N-dimethylbenzamide] | +++ | increased ATGL level; also recorded: ability to increase ATGL level | +++ |  |
| COCCn1cnc2ccc(NC(=O)Nc3cccc(N(Cc4ccccc4)C(C)=O)c3)cc2c1=O [Compound 24, N-benzyl-N-(3-(3-(3-(2-methoxyethyl)-4-oxo-3,4-dihydroquinazolin-6-yl)ureido)phenyl)acetamide] | ++++ | increased ATGL level | + |  |
| COCCn1cnc2ccc(NC(=O)Nc3cccc(NC(C)=O)c3)cc2c1=O [Compound 22, N-(3-(3-(3-(2-methoxyethyl)-4-oxo-3,4-dihydroquinazolin-6-yl)ureido)phenyl)acetamide] | + |  | + |  |
| COCCn1cnc2ccc(NC(=O)Nc3ccc(F)cc3)cc2c1=O [Compound 35, 1-(4-fluorophenyl)-3-(3-(2-methoxyethyl)-4-oxo-3,4-dihydroquinazolin-6-yl)urea] | + |  | + |  |
| COCCn1cnc2ccc(NC(=O)Nc3cccc(C(=O)N4CCCC4)c3)cc2c1=O [Compound 18, 1-(3-(2-methoxyethyl)-4-oxo-3,4-dihydroquinazolin-6-yl)-3-(3-(pyrrolidine-1-carbonyl)phenyl)urea] | ++++ | increased ATGL level; also recorded: ability to increase ATGL level | + |  |
| CCOC(=O)Cn1cnc2ccc(NC(=O)Nc3ccc(OC(F)(F)F)cc3)cc2c1=O [Compound 84, ethyl 2-(4-oxo-6-(3-(4-(trifluoromethoxy)phenyl)ureido)quinazolin-3 (4H)-yl)acetate] | ++ |  | +++ |  |
| COCCn1cnc2ccc(NC(=O)Nc3ccc(C(=O)N4CCCC4)cc3)cc2c1=O [Compound 20, 1-(3-(2-methoxyethyl)-4-oxo-3,4-dihydroquinazolin-6-yl)-3-(4-(pyrrolidine-1-carbonyl)phenyl)urea] | ++ | ability to increase ATGL level | ++ |  |
| COCCn1cnc2ccc(NC(=O)Nc3cccc(C(=O)c4ccccc4)c3)cc2c1=O [Compound 14, 1-(3-benzoylphenyl)-3-(3-(2-methoxyethyl)-4-oxo-3,4-dihydroquinazolin-6-yl)urea] | + |  | + |  |
| COCCn1cnc2ccc(NC(=O)Nc3cccc(C(=O)N4CCOCC4)c3)cc2c1=O [Compound 19, 1-(3-(2-methoxyethyl)-4-oxo-3,4-dihydroquinazolin-6-yl)-3-(3-(morpholine-4-carbonyl)phenyl)urea] | + | ability to increase ATGL level | ++ |  |
| CCOCCn1cnc2ccc(NC(=O)Nc3cccc(C(C)=O)c3)cc2c1=O [Compound 93, 1-(3-acetylphenyl)-3-(3-(2-ethoxyethyl)-4-oxo-3,4-dihydroquinazolin-6-yl)urea] | ++++ | some sort of increase in ATGL level | +++ | reduction in lipid droplets |
| COCCn1cnc2ccc(NC(=O)Nc3ccccc3)cc2c1=O [Compound 5, 1-(3-(2-methoxyethyl)-4-oxo-3,4-dihydroquinazolin-6-yl)-3-phenylurea] | ++ |  | ++ |  |
| COCCn1cnc2cc(NC(=O)Nc3cccc(C(C)=O)c3)ccc2c1=O [Compound 192, 1-(3-acetylphenyl)-3-(3-(2-methoxyethyl)-4-oxo-3,4-dihydroquinazolin-7-yl)urea] | +++ |  | ++ |  |
| COCCn1cnc2ccc(NC(=O)Nc3cccc(C(=O)NC4CCCCC4)c3)cc2c1=O [Compound 15, N-cyclohexyl-3-(3-(3-(2-methoxyethyl)-4-oxo-3,4-dihydroquinazolin-6-yl)ureido)benzamide] | ++++ |  | + |  |
| CC(=O)c1cccc(NC(=O)Nc2ccc3ncn(CCN(C)C)c(=O)c3c2)c1 [Compound 143, 1-(3-acetylphenyl)-3-(3-(2-(dimethylamino)ethyl)-4-oxo-3,4-dihydroquinazolin-6-yl)urea] | ++++ | some sort of increase in ATGL level | +++ | reduction in lipid droplets |
| COCCn1cnc2ccc(NC(=O)Nc3ccc(OC)cc3)cc2c1=O [Compound 40, 1-(3-(2-methoxyethyl)-4-oxo-3,4-dihydroquinazolin-6-yl)-3-(4-methoxyphenyl)urea] | ++++ |  | ++ |  |
| COCCn1c(C(C)C)nc2ccc(NC(=O)Nc3cccc(C(C)=O)c3)cc2c1=O [Compound 111, 1-(3-acetylphenyl)-3-(2-isopropyl-3-(2-methoxyethyl)-4-oxo-3,4-dihydroquinazolin-6-yl)urea] | +++ |  | ++ |  |
| COCCCn1cnc2ccc(NC(=O)Nc3cccc(C(C)=O)c3)cc2c1=O [Compound 89, 1-(3-acetylphenyl)-3-(3-(3-methoxypropyl)-4-oxo-3,4-dihydroquinazolin-6-yl)urea] | + | some sort of increase in ATGL level | +++ | reduction in lipid droplets |
